The values that follow come from patent US20030013660A1, “Dioxolane analogs for improved inter-cellular delivery” (Shire BioChem Inc., priority 2000, published 2003).

Holding throughout (assay): 3H-TdR incorporation at 72 hr (24 hr drug exposure, wash, 48 hr)
One experiment relates to H-460. It is filed as cell-based, Human. On the procedure:
(§1) Exposition of 24 hr to drug, wash, incubated for another 48 hr (total of 72 hr assay)
(§2) (3H-Thymidine Incorporation Assay)

The next experiment has as its system MCF-7. It is filed as cell-based, Human. On the procedure:
as §1, §2

The next experiment deals with SF-268. It counts as cell-based, Human. The settings on record: Homo sapiens, SF-268, read-out: IC50 in μM (3H-TdR incorporation at 72 hr) SF-268 24 h, SF-268 Human Central Nervous System Tumor; 24 h drug exposure, 72 hr assay. The method, then: as §1, §2
The test system of a further experiment is CCRF-CEM. It counts as cell-based. The following applies: read-out: IC50 in μM (3H-TdR incorporation at 72 hr) CCRF-CEM 24 h, CCRF-CEM T-cell Leukemia, 72 hr assay. The method, then: as §1, §2
A further experiment relates to CEM/dCK-. It is filed as cell-based. The following applies: for IC50: Homo sapiens, CCRF-CEM, read-out: IC50 in μM (3H-TdR incorporation at 72 hr) CEM/dCK- 24 h, CCRF-CEM deoxycytidine kinase-deficient, 24 h drug exposure, 72 hr assay; for Factor* (Resistance Factor = Ratio of dCK- on Wild-type CCRF-CEM): ratio of IC50 CEM/dCK- to IC50 CCRF-CEM. The method, then: as §1, §2

[1] abbreviates: Homo sapiens, NCI-H460, read-out: IC50 in μM (3H-TdR incorporation at 72 hr) H-460 24 h, H-460 Human Lung Carcinoma, 72 hr assay.
Setting [2] is: Homo sapiens, MCF7, read-out: IC50 in μM (3H-TdR incorporation at 72 hr) MCF-7 24 h, MCF-7 Human Breast Carcinoma, 72 hr assay.
Where [3] appears, read: read-out: IC50 in μM (3H-TdR incorporation at 72 hr) H-460 24 h, H-460 Human Lung Carcinoma, 72 hr assay.
The mark [4] stands for this setting: read-out: IC50 in μM (3H-TdR incorporation at 72 hr) MCF-7 24 h, MCF-7 Human Breast Carcinoma, 72 hr assay.

Several values for one entry are separate records, joined by “and”; a condition that tells them apart may be missing. Equal entries are not always repeated. Where two headings read alike, the source gives them in different places. Bounds are passed on as bounds.

On to `CC(=O)Oc1ccc(COC(=O)Nc2ccn([C@@H]3CO[C@H](CO)O3)c(=O)n2)cc1` [Compound 203, ACETIC ACID 4-[1-(2- HYDROXYMETHYL- [1,3]DIOXOLAN-4-YL)-2- OXO-1,2-DIHYDRO- PYRIMIDIN-4- YLCARBAMOYLOXYMETHYL]- PHENYL ESTER], for which the IC50 in the experiment on H-460 (setting [1]), in the experiment with MCF-7 (setting [2]) and with SF-268 was under 0.0001 µM each time.

Consider `Nc1ccn([C@@H]2CO[C@H](COC(=O)c3ccc(Cl)c(Cl)c3)O2)c(=O)n1` [Compound 187, 3,4-DICHLORO-BENZOIC ACID 4-(4-AMINO-2-OXO- 2H-PYRIMIDIN-1-YL)- [1,3]DIOXOLAN-2-YL METHYL ESTER], for which the IC50 with H-460 (setting [3]) amounted to 0.0014 µM; in the experiment on MCF-7 (setting [4]), 0.0042 µM; with CCRF-CEM, 0.0017 µM.

On to `O=c1nc(NCNc2ccccc2)ccn1[C@@H]1CO[C@H](CO)O1` [Compound 172, 1-(2-HYDROXYMETHYL- [1,3]DIOXOLAN-4-YL)-4- (PHENYLAMINOMETHYL- AMINO)-1H-PYRIMIDIN-2- ONE], for which the IC50 in the experiment with H-460 (setting [1]) came to 0.014 µM; in the experiment with H-460 (setting [3]), 0.015 µM; in the experiment with MCF-7 (setting [2]) it was 0.019 µM; in the experiment on MCF-7 (setting [4]) it was 0.036 µM; with CCRF-CEM (Homo sapiens, CCRF-CEM) it was 0.0074 µM; in the experiment on CCRF-CEM it was 0.0085 µM.

On to `CCCCC(CC)(CC)C(=O)OC[C@H]1OC[C@@H](n2ccc(N)nc2=O)O1` [Compound 218, 2,2-DIETHYL-HEXANOIC ACID 4-(4-AMINO-2-OXO- 2H-PYRIMIDIN-1-YL)- [1,3]DIOXOLAN-2-YL METHYL ESTER], for which the IC50 came out at 0.0091 µM with H-460 (setting [1]), 0.052 µM with MCF-7 (setting [2]), 0.081 µM in the experiment with SF-268 and 60 µM with CEM/dCK-.

Consider `Nc1ccn([C@@H]2CO[C@H](COC(=O)c3ccc(C(F)(F)F)cc3)O2)c(=O)n1` [Compound 189, 4-TRIFLUOROMETHYL- BENZOIC ACID 4-(4- AMINO-2-OXO-2H- PYRIMIDIN-1-YL)- [1,3]DIOXOLAN-2-YL METHYL ESTER], for which the IC50 with H-460 (setting [3]) was found to be 0.0012 µM. Moreover, the “Factor* (Resistance Factor = Ratio of dCK- on Wild-type CCRF-CEM)” value in the experiment with CEM/dCK- is 1333 and 1300.

On to `O=C(Nc1ccn([C@@H]2CO[C@H](CO)O2)c(=O)n1)C1(c2ccccc2)CCCC1` [Compound 229, 1-PHENYL- CYCLOPENTANECARBOXYLIC ACID [1-(2- HYDROXYMETHYL- [1,3]DIOXOLAN-4-YL)-2- OXO-1,2-DIHYDRO- PYRIMIDIN-4-YL]-AMIDE], for which the IC50 with H-460 (setting [1]) was 13 µM; in the experiment with H-460 (setting [3]), 14 µM; in the experiment with MCF-7 (setting [2]), 15 µM; with MCF-7 (setting [4]), 18 µM; with CCRF-CEM (Homo sapiens, CCRF-CEM) it was 11 µM; in the experiment on CEM/dCK- it was over 100 µM. Moreover, in the experiment on CEM/dCK-, the “Factor* (Resistance Factor = Ratio of dCK- on Wild-type CCRF-CEM)” value is recorded as over 9.

`Nc1ccn([C@@H]2CO[C@H](COC(=O)NCCCc3ccccc3)O2)c(=O)n1` [Compound 215, (3-PHENYL-PROPYL)- CARBAMIC ACID 4-(4- AMINO-2-OXO-2H- PYRIMIDIN-1-YL)- [1,3]DIOXOLAN-2-YL METHYL ESTER]: the IC50 with H-460 (setting [1]) was 3.9 µM; in the experiment with MCF-7 (setting [2]), 33 µM; in the experiment with SF-268 it was 96 µM; with CEM/dCK-, over 100 µM.

Turning to `CC(C)(C)C(=O)Oc1ccc(COC(=O)Nc2ccn([C@@H]3CO[C@H](COC(=O)OCc4ccc(OC(=O)C(C)(C)C)cc4)O3)c(=O)n2)cc1` [Compound 212, 2,2-Dimethylpropionic Acid 4-(1-{2-[4-(2,2-dimethylpropionyloxy)benzyloxy Carbonyloxymethyl]-[1,3]dioxolan-4-yl}-2-oxo-1,2-dihydropyrimidin-4-ylcarbamoyloxymethyl)-phenyl Ester], the IC50 turned out to be 0.00011 µM in the experiment with H-460 (setting [1]), 0.00059 µM in the experiment on MCF-7 (setting [2]), 0.018 µM with SF-268 and 3.5 µM in the experiment with CEM/dCK-.
